Activity calls are given as the source filed them. The calls are words filed in the database; no cut-off is given here.

The values that follow come from ChEMBL document CHEMBL5550160, “Leveraging a rationally designed veliparib-based anilide eliciting anti-leukemic effects for the design of pH-responsive polymer nanoformulation” (Eur J Med Chem, 2024).

Test [1] concerns the target T1, Histone deacetylase 1 (Homo sapiens, UniProt Q13547). The experiment in a line: Inhibition of HDAC1 (unknown origin) using p53 residues 379 to 382 [RHKK(Ac)] as fluorogenic substrate assessed as residual activity at 1.37 x 10^-8M (reference value: 98.06%). To be noted: dose 1.37 10^-8M.
The next test concerns the target Histone deacetylase 2 (Homo sapiens, UniProt Q92769). Kind of test: Inhibition of HDAC2 (unknown origin) assessed as residual activity at 4.12 x 10^-8M (reference value: 99.81%). To be noted: dose 4.12 10^-8M.
Test [2] concerns the target T2, Polyamine deacetylase HDAC10 (Homo sapiens) (UniProt Q969S8).
T2 sequence (whole entry): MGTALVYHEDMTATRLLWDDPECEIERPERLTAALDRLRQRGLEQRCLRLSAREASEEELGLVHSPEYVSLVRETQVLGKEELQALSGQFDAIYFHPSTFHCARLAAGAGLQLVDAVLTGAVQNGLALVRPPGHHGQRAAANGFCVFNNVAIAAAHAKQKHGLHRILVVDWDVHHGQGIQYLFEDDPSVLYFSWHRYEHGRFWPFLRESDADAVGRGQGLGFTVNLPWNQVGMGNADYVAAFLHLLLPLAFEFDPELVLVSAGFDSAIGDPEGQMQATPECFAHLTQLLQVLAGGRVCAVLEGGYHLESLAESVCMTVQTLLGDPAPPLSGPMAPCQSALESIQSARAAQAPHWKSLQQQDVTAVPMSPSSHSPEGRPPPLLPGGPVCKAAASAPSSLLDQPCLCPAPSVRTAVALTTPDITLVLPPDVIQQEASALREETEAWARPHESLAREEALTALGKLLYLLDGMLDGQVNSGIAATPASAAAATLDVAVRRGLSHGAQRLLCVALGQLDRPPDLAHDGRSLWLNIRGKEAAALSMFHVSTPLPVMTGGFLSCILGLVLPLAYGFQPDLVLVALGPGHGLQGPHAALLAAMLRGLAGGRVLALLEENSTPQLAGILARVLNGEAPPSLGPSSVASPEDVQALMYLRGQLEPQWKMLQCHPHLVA
The experiment in a line: Inhibition of HDAC10 (unknown origin) assessed as residual activity at 1.1 x 10^-6M (reference value: 101.54%). The note with it: dose 1.1 10^-6M.

Test [3] concerns the target Histone deacetylase 4 (Homo sapiens) (UniProt P56524). Kind of test: Inhibition of HDAC4 (unknown origin) assessed as residual activity at 1.52 x 10^-9M (reference value: 98.90%). The note with it: dose 1.52 10^-9M.
Test [4] deals with T3, Protein deacetylase HDAC6 (Homo sapiens) (UniProt Q9UBN7).
T3 sequence (whole entry): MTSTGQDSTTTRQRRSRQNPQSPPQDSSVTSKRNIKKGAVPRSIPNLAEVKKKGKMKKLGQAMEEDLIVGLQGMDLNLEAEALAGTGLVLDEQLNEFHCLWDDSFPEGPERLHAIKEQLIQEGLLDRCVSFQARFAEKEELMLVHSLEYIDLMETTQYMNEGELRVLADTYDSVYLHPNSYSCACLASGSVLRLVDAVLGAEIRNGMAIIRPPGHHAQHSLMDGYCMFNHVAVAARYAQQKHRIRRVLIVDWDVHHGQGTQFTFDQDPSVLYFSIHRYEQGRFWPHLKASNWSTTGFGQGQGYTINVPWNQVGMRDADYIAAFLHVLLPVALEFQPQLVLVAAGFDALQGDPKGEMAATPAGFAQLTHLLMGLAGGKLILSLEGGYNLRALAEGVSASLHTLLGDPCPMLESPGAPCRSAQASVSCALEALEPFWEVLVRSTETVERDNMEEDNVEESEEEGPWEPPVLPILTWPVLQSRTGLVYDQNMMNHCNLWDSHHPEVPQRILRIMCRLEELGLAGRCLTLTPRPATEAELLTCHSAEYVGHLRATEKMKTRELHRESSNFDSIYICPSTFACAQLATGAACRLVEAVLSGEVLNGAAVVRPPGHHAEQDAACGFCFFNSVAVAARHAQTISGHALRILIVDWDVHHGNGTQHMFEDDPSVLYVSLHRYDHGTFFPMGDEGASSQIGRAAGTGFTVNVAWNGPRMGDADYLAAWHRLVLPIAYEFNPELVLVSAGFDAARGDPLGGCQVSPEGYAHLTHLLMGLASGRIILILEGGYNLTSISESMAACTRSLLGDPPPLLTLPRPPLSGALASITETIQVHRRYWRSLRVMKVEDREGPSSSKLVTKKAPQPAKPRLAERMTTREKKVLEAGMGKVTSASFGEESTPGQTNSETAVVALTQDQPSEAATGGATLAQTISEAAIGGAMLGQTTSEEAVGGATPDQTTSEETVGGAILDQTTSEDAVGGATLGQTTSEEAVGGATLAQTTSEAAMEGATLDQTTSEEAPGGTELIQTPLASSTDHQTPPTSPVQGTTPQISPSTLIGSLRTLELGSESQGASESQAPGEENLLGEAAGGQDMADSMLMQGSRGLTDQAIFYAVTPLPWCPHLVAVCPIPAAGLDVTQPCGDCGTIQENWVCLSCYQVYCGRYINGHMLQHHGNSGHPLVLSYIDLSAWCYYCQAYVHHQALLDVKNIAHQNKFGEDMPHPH
The experiment in a line: Inhibition of HDAC6 (unknown origin) using p53 residues 379 to 382 [RHKK(Ac)] as fluorogenic substrate assessed as residual activity at 1.52 x 10^-9M (reference value: 101.06%). To be noted: dose 1.52 10^-9M.

Test [5] deals with T3, Protein deacetylase HDAC6 (Homo sapiens). Kind of test: Inhibition of HDAC6 (unknown origin) using p53 residues 379 to 382 [RHKK(Ac)] as fluorogenic substrate assessed as residual activity at 1.23 x 10^-7M (reference value: 101.06%). To be noted: dose 1.23 10^-7M.
Test [6] concerns HL-60. Kind of test: Downregulation of PARP-1 protein expression in human HL-60 cells by Western blot analysis. It counts as functional, cell-based.
Test [7] has as its target Histone deacetylase 9 (Homo sapiens) (UniProt Q9UKV0). Kind of test: Inhibition of HDAC9 (unknown origin) assessed as residual activity at 1.52 x 10^-9M (reference value: 97.55%). The note with it: dose 1.52 10^-9M.
The target in test [8] is T1, Histone deacetylase 1. Kind of test: Inhibition of HDAC1 (unknown origin) using p53 residues 379 to 382 [RHKK(Ac)] as fluorogenic substrate assessed as residual activity at 3.70 x 10^-7M (reference value: 98.06%). To be noted: dose 3.7 10^-7M.
Test [9] deals with HL-60. The experiment in a line: Induction of apoptosis in human HL-60 cells assessed as cell blebbing at 0.5 to 1 times IC50 by DAPI staining based microscopic analysis. It counts as functional.
For test [10], the target named is Histone deacetylase 5 (Homo sapiens) (UniProt Q9UQL6). Kind of test: Inhibition of HDAC5 (unknown origin) assessed as residual activity at 1.52 x 10^-9M (reference value: 100%). To be noted: dose 1.52 10^-9M.
The target in test [11] is T2, Polyamine deacetylase HDAC10 (Homo sapiens). Kind of test: Inhibition of HDAC10 (unknown origin) assessed as residual activity at 1.52 x 10^-9M (reference value: 101.54%). The note with it: dose 1.52 10^-9M.
In test [12] the target is Histone deacetylase 4 (Homo sapiens) (UniProt P56524). Kind of test: Inhibition of HDAC4 (unknown origin) assessed as residual activity at 4.57 x 10^-9M (reference value: 98.90%). To be noted: dose 4.57 10^-9M.
Sequence of Histone deacetylase 4 (Homo sapiens) (P56524 whole entry): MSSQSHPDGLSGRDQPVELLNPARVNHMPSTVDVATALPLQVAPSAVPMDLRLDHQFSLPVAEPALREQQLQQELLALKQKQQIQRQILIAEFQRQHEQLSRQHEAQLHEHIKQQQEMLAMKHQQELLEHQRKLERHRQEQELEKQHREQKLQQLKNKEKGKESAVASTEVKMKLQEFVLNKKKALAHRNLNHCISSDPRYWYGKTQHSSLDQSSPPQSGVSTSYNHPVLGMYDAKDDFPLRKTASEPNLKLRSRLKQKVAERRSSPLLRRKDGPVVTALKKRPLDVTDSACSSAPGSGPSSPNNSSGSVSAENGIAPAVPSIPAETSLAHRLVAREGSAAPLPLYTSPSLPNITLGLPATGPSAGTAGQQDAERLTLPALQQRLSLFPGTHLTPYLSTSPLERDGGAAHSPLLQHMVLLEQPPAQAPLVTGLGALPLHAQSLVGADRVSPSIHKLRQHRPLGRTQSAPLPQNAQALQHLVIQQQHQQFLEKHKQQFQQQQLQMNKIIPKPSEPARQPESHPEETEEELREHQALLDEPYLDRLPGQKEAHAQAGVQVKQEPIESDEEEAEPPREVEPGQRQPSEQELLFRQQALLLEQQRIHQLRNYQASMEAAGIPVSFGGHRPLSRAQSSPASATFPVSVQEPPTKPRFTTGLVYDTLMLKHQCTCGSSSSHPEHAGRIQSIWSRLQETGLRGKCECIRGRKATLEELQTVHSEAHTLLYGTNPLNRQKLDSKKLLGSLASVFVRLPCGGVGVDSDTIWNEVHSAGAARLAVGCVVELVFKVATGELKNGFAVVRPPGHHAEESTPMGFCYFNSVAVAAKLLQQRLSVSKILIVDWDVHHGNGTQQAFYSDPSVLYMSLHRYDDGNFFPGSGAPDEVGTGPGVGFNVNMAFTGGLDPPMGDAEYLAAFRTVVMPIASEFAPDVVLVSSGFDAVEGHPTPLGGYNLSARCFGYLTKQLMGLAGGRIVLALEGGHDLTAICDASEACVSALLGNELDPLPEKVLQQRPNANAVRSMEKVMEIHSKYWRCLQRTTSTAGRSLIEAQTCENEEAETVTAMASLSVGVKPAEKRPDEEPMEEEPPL

T1 sequence (Q13547 whole entry, the tested form may be a part): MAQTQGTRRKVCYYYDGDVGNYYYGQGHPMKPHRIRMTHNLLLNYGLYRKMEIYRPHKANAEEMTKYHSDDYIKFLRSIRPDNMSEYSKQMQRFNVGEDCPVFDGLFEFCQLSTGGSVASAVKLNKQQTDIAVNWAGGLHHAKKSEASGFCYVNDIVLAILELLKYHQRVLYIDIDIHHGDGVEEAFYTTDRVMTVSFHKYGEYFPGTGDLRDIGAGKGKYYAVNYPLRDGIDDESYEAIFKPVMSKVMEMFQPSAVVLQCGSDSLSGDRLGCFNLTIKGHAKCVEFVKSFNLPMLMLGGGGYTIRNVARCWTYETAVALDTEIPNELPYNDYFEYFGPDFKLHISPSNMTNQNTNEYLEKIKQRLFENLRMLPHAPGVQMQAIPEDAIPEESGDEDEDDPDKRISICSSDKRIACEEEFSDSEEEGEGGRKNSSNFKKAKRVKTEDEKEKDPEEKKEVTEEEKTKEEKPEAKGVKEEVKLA
Sequence of Histone deacetylase 2 (Q92769 whole entry): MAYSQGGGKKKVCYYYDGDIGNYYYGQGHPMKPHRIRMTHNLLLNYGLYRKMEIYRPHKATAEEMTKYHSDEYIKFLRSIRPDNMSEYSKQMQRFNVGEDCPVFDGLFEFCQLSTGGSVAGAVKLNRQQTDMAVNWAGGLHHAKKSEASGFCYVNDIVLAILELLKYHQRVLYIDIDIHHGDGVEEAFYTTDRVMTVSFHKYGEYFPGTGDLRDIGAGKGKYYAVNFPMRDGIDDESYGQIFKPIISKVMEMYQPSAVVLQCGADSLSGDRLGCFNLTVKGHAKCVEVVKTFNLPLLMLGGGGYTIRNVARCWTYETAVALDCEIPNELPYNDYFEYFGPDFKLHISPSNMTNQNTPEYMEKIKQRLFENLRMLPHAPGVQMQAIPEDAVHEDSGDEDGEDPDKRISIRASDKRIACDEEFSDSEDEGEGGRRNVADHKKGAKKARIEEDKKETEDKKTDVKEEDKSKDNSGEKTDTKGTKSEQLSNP
Sequence of Histone deacetylase 9 (Homo sapiens) (Q9UKV0 whole entry, the tested form may be a part): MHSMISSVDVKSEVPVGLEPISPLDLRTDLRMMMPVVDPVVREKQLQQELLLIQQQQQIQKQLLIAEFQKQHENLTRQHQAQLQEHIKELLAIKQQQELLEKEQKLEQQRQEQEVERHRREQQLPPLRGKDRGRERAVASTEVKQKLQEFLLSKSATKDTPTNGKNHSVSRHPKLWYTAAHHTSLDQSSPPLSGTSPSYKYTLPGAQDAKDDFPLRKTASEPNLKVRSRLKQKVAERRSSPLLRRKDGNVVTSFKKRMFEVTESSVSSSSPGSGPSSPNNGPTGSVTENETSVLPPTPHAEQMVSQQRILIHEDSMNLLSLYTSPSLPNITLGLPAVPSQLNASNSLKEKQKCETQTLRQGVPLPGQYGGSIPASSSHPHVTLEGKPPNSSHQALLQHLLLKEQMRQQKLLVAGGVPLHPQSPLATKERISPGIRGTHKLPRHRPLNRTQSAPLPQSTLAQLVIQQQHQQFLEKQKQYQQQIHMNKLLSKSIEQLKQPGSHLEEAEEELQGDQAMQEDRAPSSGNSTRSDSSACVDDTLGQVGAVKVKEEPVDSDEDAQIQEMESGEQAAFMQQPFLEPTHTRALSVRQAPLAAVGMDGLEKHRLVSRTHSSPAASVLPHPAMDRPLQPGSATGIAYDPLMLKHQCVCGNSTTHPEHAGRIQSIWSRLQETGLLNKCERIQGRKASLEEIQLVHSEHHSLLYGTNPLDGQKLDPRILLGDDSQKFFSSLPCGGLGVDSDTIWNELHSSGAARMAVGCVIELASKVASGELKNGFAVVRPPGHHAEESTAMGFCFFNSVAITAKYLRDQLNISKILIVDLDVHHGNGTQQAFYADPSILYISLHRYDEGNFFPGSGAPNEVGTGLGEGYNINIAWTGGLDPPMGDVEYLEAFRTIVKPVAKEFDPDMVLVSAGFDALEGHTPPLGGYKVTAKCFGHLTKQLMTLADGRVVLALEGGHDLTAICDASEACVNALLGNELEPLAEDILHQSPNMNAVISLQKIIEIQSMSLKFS
Sequence of Histone deacetylase 5 (Homo sapiens) (Q9UQL6 whole entry): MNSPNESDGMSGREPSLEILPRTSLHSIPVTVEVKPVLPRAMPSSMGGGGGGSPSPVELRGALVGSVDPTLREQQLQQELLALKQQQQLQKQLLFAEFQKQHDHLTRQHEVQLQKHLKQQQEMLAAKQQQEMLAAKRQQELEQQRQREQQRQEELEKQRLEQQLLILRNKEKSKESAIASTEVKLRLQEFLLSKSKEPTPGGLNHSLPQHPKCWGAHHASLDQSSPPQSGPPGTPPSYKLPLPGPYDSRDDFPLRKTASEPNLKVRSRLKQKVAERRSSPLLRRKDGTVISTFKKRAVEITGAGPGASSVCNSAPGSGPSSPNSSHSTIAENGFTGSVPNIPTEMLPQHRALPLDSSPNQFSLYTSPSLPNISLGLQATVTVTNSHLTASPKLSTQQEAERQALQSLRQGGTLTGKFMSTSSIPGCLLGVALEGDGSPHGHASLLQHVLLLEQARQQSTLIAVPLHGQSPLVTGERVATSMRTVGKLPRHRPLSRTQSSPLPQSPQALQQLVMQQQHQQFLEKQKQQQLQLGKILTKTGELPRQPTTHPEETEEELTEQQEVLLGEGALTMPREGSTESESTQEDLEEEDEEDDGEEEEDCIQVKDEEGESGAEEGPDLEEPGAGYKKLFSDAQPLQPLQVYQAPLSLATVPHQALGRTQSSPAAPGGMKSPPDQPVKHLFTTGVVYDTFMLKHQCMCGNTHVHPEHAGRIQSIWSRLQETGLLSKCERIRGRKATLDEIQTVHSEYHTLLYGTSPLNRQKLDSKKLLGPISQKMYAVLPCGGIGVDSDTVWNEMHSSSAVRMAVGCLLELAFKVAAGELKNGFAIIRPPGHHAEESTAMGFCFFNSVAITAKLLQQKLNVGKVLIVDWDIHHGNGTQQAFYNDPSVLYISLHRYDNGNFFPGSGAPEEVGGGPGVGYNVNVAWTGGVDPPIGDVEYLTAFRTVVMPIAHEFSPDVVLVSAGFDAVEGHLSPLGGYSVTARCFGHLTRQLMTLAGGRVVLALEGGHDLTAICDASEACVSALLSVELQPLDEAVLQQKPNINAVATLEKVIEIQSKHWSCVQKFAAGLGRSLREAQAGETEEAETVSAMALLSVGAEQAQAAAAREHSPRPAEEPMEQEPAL

`NC(=O)c1cccc2[nH]c(-c3ccc(NCc4ccc(C(=O)Nc5ccccc5N)cc4)cc3)nc12`: the Activity amounted to 73.9% on Histone deacetylase 1 [1]; 69.7% at Histone deacetylase 2; 96.2% in test [2]; 94.7% in test [3]; 96.7% in test [4]; 91.9% in test [5]. Besides, the Activity amounted to 97.8% in test [7]; 16.9% on Histone deacetylase 1 [8]; 80.1% in [10]; 97.3% in test [11]; 95.9% in test [12]. The result in the test on HL-60 [6] was Active. Moreover, in the test on HL-60 [9], the result was inactive.
